The values below come from patent US9375013B2, “Herbicidal composition” (ISHIHARA SANGYO KAISHA, LTD., priority 2013, dated 2016).

Format in all cases: in vivo
Test [1] deals with summergrass (Digitaria ciliaris (Retz.) Koeler). In words: Test Example 1: pot soil treatment, growth inhibition of summergrass. The following applies: dose 10 g/ha, 14th day after treatment, read-out: Growth inhibition rate (%) of summergrass, Measured value. As for the experimental part: Upland field soil was put into a 1/160,000 ha pot, and seeds of summergrass (Digitaria ciliaris (Retz.) Koeler) were sown. On the next day, predetermined amounts of flazasulfuron and imazapic were diluted with water (in an amount corresponding to 300 L/ha), and applied for soil treatment by a small sprayer. On the 14th day after treatment, the state of growth of the summergrass was visually observed to determine the growth inhibition rate in accordance with the following evaluation standard. The growth inhibition rate (%) (measured value) and the growth inhibition rate (%) (calculated value) calculated by the Colby's formula are shown in Table 1. Growth inhibition rate (%)=0 (equivalent to the non-treated area) to 100 (complete kill)

The subject of test [2] is wild oat (Avena fatua L.). In words: Test Example 3: pot soil treatment, growth inhibition of wild oat. As to conditions: 22nd day after treatment, read-out: Growth inhibition rate (%) of wild oat, Measured value. The source says: (§1) On the 14th day after treatment, the state of growth of the summergrass was visually observed to determine the growth inhibition rate in accordance with the following evaluation standard. The growth inhibition rate (%) (measured value) and the growth inhibition rate (%) (calculated value) calculated by the Colby's formula are shown in Table 1. Growth inhibition rate (%)=0 (equivalent to the non-treated area) to 100 (complete kill) Upland field soil was put into a 1/160,000 ha pot, and seeds of wild oat (Avena fatua L.) were sown. On the next day, predetermined amounts of flazasulfuron, mesotrione and imazapic were diluted with water (in an amount corresponding to 300 L/ha), and applied for soil treatment by a small sprayer. On the 22nd day after treatment, the state of growth of the wild oat was visually observed to determine the growth inhibition rate. The growth inhibition rate (%) (measured value) and the growth inhibition rate (%) calculated in the same manner as in Test Example 1 are shown in Table 3.

For test [3], the system named is rostrate sesbania(Sesbania rostrata Bremek. & Oberm.). In words: Test Example 7: pot soil treatment, growth inhibition of rostrate sesbania. As to conditions: 22nd day after treatment, read-out: Growth inhibition rate (%) of rostrate sesbania, Measured value.
Test [4] deals with barnyardgrass (Echinochloa crus-galli L). Put plainly: Test Example 9: pot soil treatment, growth inhibition of barnyardgrass. The following applies: dose 30 g/ha, 21st day after treatment, read-out: Growth inhibition rate (%) of barnyardgrass, Measured value.
Source text: as §1, with “barnyardgrass (Echinochloa crus-galli L)” for “wild oat (Avena fatua L.)”, “flazasulfuron” for “flazasulfuron, mesotrione”, “hexazinone” for “imazapic”, “21st” for “22nd”, “barnyardgrass” for “wild oat”, “9.” for “3.”

The subject of test [5] is common ragweed (Ambrosia artemisiifolia L.). Put plainly: Test Example 11: pot soil treatment, growth inhibition of common ragweed. As to conditions: dose 10 g/ha, 21st day after treatment, read-out: Growth inhibition rate (%) of common ragweed, Measured value.
Source text: as §1, with “common ragweed (Ambrosia artemisiifolia” for “wild oat (Avena fatua”, “flazasulfuron” for “flazasulfuron, mesotrione”, “21st” for “22nd”, “common ragweed” for “wild oat”, “11.” for “3.”

Test [6] concerns velvetleaf (Abutilon theophrasti MEDIC.). In words: Test Example 14: pot soil treatment, growth inhibition of velvetleaf. The following applies: dose 30 g/ha, 21st day after treatment, read-out: Growth inhibition rate (%) of velvetleaf, Measured value.
Source text: as §1, with “velvetleaf (Abutilon theophrasti MEDIC.)” for “wild oat (Avena fatua L.)”, “flazasulfuron” for “flazasulfuron, mesotrione”, “hexazinone” for “imazapic”, “21st” for “22nd”, “velvetleaf” for “wild oat”, “14.” for “3.”

The subject of test [7] is field bindweed (Convolvulus arvensis L.). In words: Test Example 15: pot soil treatment, growth inhibition of field bindweed. The following applies: dose 30 g/ha, 21st day after treatment, read-out: Growth inhibition rate (%) of field bindweed, Measured value.
Source text: as §1, with “field bindweed (Convolvulus arvensis” for “wild oat (Avena fatua”, “21st” for “22nd”, “field bindweed” for “wild oat”, “15.” for “3.”

Each structure is given as a SMILES string.

Broadly, the inhibition is how much of the control response was suppressed. Consider `COc1cc(OC)nc(NC(=O)NS(=O)(=O)c2ncccc2C(F)(F)F)n1` [Flazasulfuron, flazasulfuron], for which the results for the inhibition at 10 g/ha in test [1] and in test [5] were 15% and 80%, respectively. The inhibition at 30 g/ha turned out to be 40% in test [2] (dose 30 g/ha), 90% in test [4], 20% in test [6] and 0% in test [7]. For the same compound, the results for the inhibition at 50 g/ha in test [2] (dose 50 g/ha) and in test [3] were 0% and 35%, respectively.
